According to patent US8475823B2, “Baclofen formulation in a polyorthoester carrier” (Medtronic, Inc., priority 2008, dated 2013):

Experiments:
[1] = test system: normal bladder activity (frequency of reflex bladder contractions); experiment: Epidural infusion of baclofen in a rat model of bladder pain, intravesical saline infusion (normal bladder activity); assay type: in vivo; conditions: female rat, epidural infusion 10 μg/day
Method: (§1) FIG. 1 is a graphic representation of epidural infusion of baclofen in rats treated with an intravesical infusion of saline. Baseline bladder activity was measured before epidural drug treatment as described in Example 4. The columns and error bars represent the mean and SEM values of 10 rats per group. Asterisks indicate statistically significant dose effects compared to baseline as determined by post-hoc Dunnett Multiple Comparison Test.
(§2) An animal model that has been used frequently to study pelvic pain conditions is a rat model of bladder pain. In this model, a female rat was lightly anesthetized with isoflurane and a transurethral catheter was placed into the bladder. The catheter was connected to a pressure transducer so that the pressure within the bladder could be continuously monitored and recorded over time. Fluid was continuously infused into the bladder using a syringe pump at a rate of 0.1 mL/min to cause the bladder to contract repeatedly each time it became full. This is referred to as a volume-evoked micturition reflex or contraction. A repeated series of bladder contractions (pressure spikes) over time was collected using this method. To mimic normal bladder activity, 0.9% saline was infused into the bladder; to mimic painful bladder activity, a dilute solution of acetic acid (0.5%) was infused into the bladder. […]

[2] = test system: acetic acid induced bladder hypermotility (frequency of bladder contraction reflexes); experiment: Epidural infusion of baclofen in a rat model of bladder pain, intravesical acetic acid infusion (painful bladder activity); assay type: in vivo; conditions: female rat, epidural infusion 10 μg/day
Method: as §1, with “FIG. 2” for “FIG. 1”, “of acetic acid as described in Example 4.” for “of saline.”, “drug treatment.” for “drug treatment as described in Example 4.”
as §2, with “contraction.” for “contraction. A repeated series of bladder contractions (pressure spikes) over time was collected using this method. To mimic normal bladder activity, 0.9% saline was infused into the bladder; to mimic painful bladder activity, a dilute solution of acetic acid (0.5%) was infused into the bladder.”
In order to evaluate the effects of epidurally administered analgesics on normal and painful bladder activity (frequency of reflex bladder contractions), test drugs were continuously administered via an epidural catheter with the tip placed in the mid-lumbar epidural space. […] In the experiments depicted in FIGS. 1 and 2, the baseline bladder activity was measured before implanting the epidural infusion system, the infusion system was implanted on day 0 and cystometrograms were recorded on three consecutive days during which baclofen (10 μg/day) was infused into the lumbar epidural space.
Baclofen at 10 μg/day reduced acetic acid induced bladder hypermotility by approximately 3 fold on day 3. The frequency of bladder contraction observed during acetic acid infusion and epidural baclofen administration was similar to the baseline bladder activity measured during saline infusion (0.195±0.047 day 3 acetic acid and epidural baclofen vs 0.193±0.035 baseline saline).

Question: `NCC(CC(=O)O)c1ccc(Cl)cc1` (centres unmarked) [baclofen, 4-amino-3-(4-chlorophenyl)butanoic acid] was tested. Which “effects on normal bladder activity measured during saline infusion” value ([1]; days 1 and 2, vs baseline) did it give?
Answer: minimal effects

Question: What about the “contraction rate relative to the baseline reflex contraction rate” value ([1]; saline infusion, day three) of the same compound?
Answer: statistically significant reductions

Question: What about the “frequency of bladder contraction reflexes during acetic acid infusion” value ([2]; 0.5% acetic acid, all three days, vs baseline) of the same compound?
Answer: significantly reduced

Question: And the “reduction of acetic acid induced bladder hypermotility” value ([2]; day 3)?
Answer: approximately 3 fold

Question: What about the “frequency of bladder contraction during acetic acid infusion and epidural baclofen administration” value ([2]; day 3, mean ± SEM, 10 rats per group) of the same compound?
Answer: 0.195±0.047 reflexes per min
